Data from ChEMBL document CHEMBL3124920, “Substituted Benzofurans as Inhibitors of HCV NS5B Protein” (ACS Med Chem Lett, 2014).

Assays:
Hepatitis C virus = assay: Antiviral activity against Hepatitis C virus genotype 1b infected in human HuH7 cells after 3 days by luciferase reporter gene assay; format: functional, organism-based, Hepacivirus hominis; conditions: Huh-7, 72 h
[1] = Inhibition of HCV NS5B polymerase after 4 hrs by on-bead solid phase homogeneous assay; set-up: species or system Hepacivirus hominis

Row | SMILES | EC50 (Hepatitis C virus) | IC50 [1]
1 | CCN(c1cc2oc(-c3ccc(F)cc3)c(-c3ncc[nH]3)c2c(F)c1-c1cc(C(=O)NC2(c3ncccn3)CC2)c(OC)cc1C)S(C)(=O)=O | 0.009 µM | –
2 | CCNc1cc2oc(-c3ccc(F)cc3)c(-c3ncc[nH]3)c2c(F)c1-c1cc(C(=O)NC2(c3ncccn3)CC2)c(OC)cc1C | 0.0072 µM | –
3 | COc1cc(C)c(-c2ccc3oc(-c4ccc(F)cc4)c(-c4ncc[nH]4)c3c2F)cc1C(=O)NC1(c2ncccn2)CC1 | 0.03 µM | 0.03 µM
